Experimental findings from patent US8003687B2, “Esters of compounds in the leptomycin family” (Kosan Biosciences Incorporated, priority 2005, dated 2011) are described below.

Read-outs that look alike come from different tables or passages of the source.

The test system of one assay is MCF-7. The assay can be described thus: inhibition of tumor cell proliferation, MCF-7. The assay is classed as cell-based, human. The method, then: (§1) The biological activity of compounds of this invention was evaluated by measuring their inhibitory effect on the proliferation of various tumor cell lines. MCF-7, A549, and SKOV-3 are human breast, lung, and ovary cancer cell lines, respectively. NCI/ADR is a multi-drug resistant breast cancer cell line. CCRF-CEM and CCRF-CEM/PTX are human leukemia cell lines, the latter being a paclitaxel-resistant subline.

The subject of the next assay is SKOV-3. Nature of the assay: inhibition of tumor cell proliferation, SKOV-3. In kind it is cell-based, human. The method, then:
as §1

The next assay deals with A549. The assay can be described thus: inhibition of tumor cell proliferation, A549. In kind it is cell-based, human. The method, then: as §1
Another assay has as its system CCRF-CEM. The assay can be described thus: inhibition of tumor cell proliferation, CCRF-CEM. The assay is classed as cell-based, human. To be noted: read-out: Tumor Cell Line (IC50, nM) CCRF-CEM. As to the method: as §1
The next assay has as its system NCI/ADR. The assay can be described thus: inhibition of tumor cell proliferation, NCI/ADR. Particulars: read-out: Tumor Cell Line (IC50, nM) NCI/ADR. The assay is classed as cell-based. As to the method:
as §1

For the next assay, the system named is CCRF-CEM/PTX. Nature of the assay: inhibition of tumor cell proliferation, CCRF-CEM/PTX. The assay is classed as cell-based, human. Particulars: read-out: Tumor Cell Line (IC50, nM) CCRF-CEM/PTX. The method, then: as §1
The mark [1] stands for this setting: Homo sapiens, MCF7, read-out: Tumor Cell Line (IC50, nM) MCF-7.
[2] abbreviates: Homo sapiens, SK-OV-3, read-out: Tumor Cell Line (IC50, nM) SKOV-3.
[3] abbreviates: Homo sapiens, A549, read-out: Tumor Cell Line (IC50, nM) A549.

Turning to `CCC(=C/[C@H](C)C/C=C/C(C)=C/[C@@H](C)C(=O)[C@@H](C)[C@H](O)[C@@H](C)C/C(C)=C/C(=O)O)/C=C/[C@@H]1OC(=O)C=C[C@@H]1C` [LMB, Leptomycin B, reference compound], the IC50 in the assay on MCF-7 (MCF7, human breast cancer cell line, read-out: Tumor Cell Line (IC50, nM) MCF-7) worked out at 0.29 nM; with SKOV-3 (SK-OV-3, human ovary cancer cell line, read-out: Tumor Cell Line (IC50, nM) SKOV-3), 1.5 nM; in the assay on A549 (A549, human lung cancer cell line, read-out: Tumor Cell Line (IC50, nM) A549) it was 0.3 nM; in the assay with CCRF-CEM (CCRF-CEM, human leukemia cell line), 0.65 nM; in the assay on NCI/ADR (Homo sapiens, NCI/ADR-RES, multi-drug resistant breast cancer cell line) it was 1 nM; in the assay on CCRF-CEM/PTX (CCRF-CEM, human leukemia cell line, paclitaxel-resistant subline), 0.41 nM.

With “LMB methyl ester [Compound 4, reference compound]”, the IC50 was 1.9 nM in the assay with MCF-7 (human breast cancer cell line, read-out: Tumor Cell Line (IC50, nM) MCF-7); 8.2 nM in the assay with SKOV-3 (human ovary cancer cell line, read-out: Tumor Cell Line (IC50, nM) SKOV-3); 2.4 nM in the assay with A549 (human lung cancer cell line, read-out: Tumor Cell Line (IC50, nM) A549); 0.55 nM in the assay with CCRF-CEM (human leukemia cell line); 13.1 nM with NCI/ADR (multi-drug resistant breast cancer cell line); 0.63 nM in the assay on CCRF-CEM/PTX (human leukemia cell line, paclitaxel-resistant subline).

Take `CCC(=C/[C@H](C)C/C=C/C(C)=C/[C@@H](C)C(=O)[C@@H](C)[C@H](O)[C@@H](C)C/C(C)=C/C(=O)OCC(=O)OC)/C=C/[C@@H]1OC(=O)C=C[C@@H]1C` [Compound 2]: the IC50 in the assay with MCF-7 (setting [1]) came to 0.33 nM; in the assay with SKOV-3 (setting [2]), 5.3 nM; with A549 (setting [3]), 2.3 nM; in the assay on CCRF-CEM (Homo sapiens, CCRF-CEM) it was 1.1 nM; in the assay on NCI/ADR (Homo sapiens, NCI/ADR-RES), 5.2 nM; with CCRF-CEM/PTX (Homo sapiens, CCRF-CEM), 1 nM.

Regarding `CCC(=C/[C@H](C)C/C=C/C(C)=C/[C@@H](C)C(=O)[C@@H](C)[C@H](O)[C@@H](C)C/C(C)=C/C(=O)OCc1ccccc1)/C=C/[C@@H]1OC(=O)C=C[C@@H]1C` [Compound 1], the IC50 worked out at 3 nM in the assay with MCF-7 (setting [1]); 17 nM in the assay on SKOV-3 (setting [2]); 5.3 nM in the assay on A549 (setting [3]); 2.7 nM in the assay with CCRF-CEM (Homo sapiens, CCRF-CEM); 38 nM in the assay on NCI/ADR (Homo sapiens, NCI/ADR-RES); 4.8 nM with CCRF-CEM/PTX (Homo sapiens, CCRF-CEM).

`CCC(=C/[C@H](C)C/C=C/C(C)=C/[C@@H](C)C(=O)[C@@H](C)[C@H](O)[C@@H](C)C/C(C)=C/C(=O)OCc1cccc2cccnc12)/C=C/[C@@H]1OC(=O)C=C[C@@H]1C` [Compound 3]: the IC50 in the assay with MCF-7 (setting [1]) came to 3.7 nM; in the assay with SKOV-3 (setting [2]) it was 24 nM; with A549 (setting [3]), 5.3 nM; with CCRF-CEM (Homo sapiens, CCRF-CEM), 5.6 nM; in the assay with NCI/ADR (Homo sapiens, NCI/ADR-RES), 270 nM; in the assay with CCRF-CEM/PTX (Homo sapiens, CCRF-CEM), 14 nM.
